Results: ChEMBL document CHEMBL4038299, “Nitroimidazoles: Molecular Fireworks That Combat a Broad Spectrum of Infectious Diseases” (J Med Chem, 2017)
Values after ≈ are worked out from the molar mass of the structure shown.

Tests used:
Bacteroides fragilis = assay: Antibacterial activity against Bacteroides fragilis ATCC 23745 after 24 hrs; assay type: functional; conditions: ATCC 23745, 24 h
Giardia intestinalis [1] = assay: In vivo antiparasitic activity against Giardia lamblia infected in human assessed as median efficacy at 2 g administered in adults as single dose; assay type: functional, Giardia duodenalis
[2] = Half life in plasma (unknown origin); assay type: ADME, cell-free
Trichomonas vaginalis [3] = assay: Antiparasitic activity against Trichomonas vaginalis clinical isolate after 48 hrs under aerobic conditions by inverted phase contrast microscopic analysis; assay type: functional
Helicobacter pylori [4] = assay: In vivo antibacterial activity against Helicobacter pylori infected in human administered bid for 7 days measured after 30 days post start of the treatment by endoscopic analysis; assay type: functional
Leishmania donovani [5] = assay: Antileishmanial activity against Leishmania donovani HU3 infected in po dosed BALB/c mouse administered for 5 consecutive days; assay type: functional
Giardia intestinalis [6] = assay: In vivo antiparasitic activity against Giardia lamblia infected in human assessed as median efficacy at 30 mg/kg administered in children as single dose; assay type: functional, Giardia duodenalis
Leishmania donovani [7] = assay: Antileishmanial activity against Leishmania donovani LV9 amastigotes infected in mouse peritoneal macrophages after 72 hrs; assay type: functional; conditions: LV9, 72 h
Trypanosoma cruzi [8] = assay: Antiparasitic activity against Trypanosoma cruzi infected in human assessed as cure rate under chronic condition; assay type: functional
Trypanosoma cruzi [9] = assay: Antiparasitic activity against Trypanosoma cruzi infected in human assessed as cure rate under acute condition; assay type: functional
Leishmania donovani [10] = assay: Antileishmanial activity against Leishmania donovani LV9 amastigotes infected in BALB/c mouse peritoneal macrophages after 72 hrs by resazurin-based fluorescence assay; assay type: functional; conditions: LV9, 72 h
Leishmania donovani [11] = assay: Antileishmanial activity against Leishmania donovani LV9 promastigotes after 72 hrs by resazurin-based fluorescence assay; assay type: functional; conditions: LV9, 72 h
[12] = system: Mycobacterium tuberculosis; assay: Antimycobacterial activity against Mycobacterium tuberculosis; assay type: functional
Leishmania donovani [13] = assay: Antileishmanial activity against Leishmania donovani LV9 amastigotes infected in BALB/c mouse assessed as reduction in parasite burden at 200 mg/kg, po administered qd for 5 days; assay type: functional; conditions: 120 h
Entamoeba histolytica = assay: Antiparasitic activity against Entamoeba histolytica clinical isolate after 24 hrs under anaerobic cinditions; assay type: functional
Trichomonas vaginalis [14] = assay: Antiparasitic activity against Trichomonas vaginalis BRIS/92/STDL/B7268 clinical isolate after 48 hrs under anaerobic condition; assay type: functional
Giardia intestinalis [15] = assay: In vivo antiparasitic activity against Giardia lamblia infected in human at 250 mg administered 2 to 3 times per day daily for 5 to 10 days; assay type: functional, Giardia duodenalis
Giardia intestinalis [16] = assay: In vivo antiparasitic activity against Giardia lamblia infected in human at 2000 to 2400 mg administered as single dose; assay type: functional, Giardia duodenalis
[17] = Drug excretion in po dosed human feces; assay type: ADME, organism-based; conditions: in vivo
[18] = Drug excretion in po dosed human watery feces; assay type: ADME, organism-based; conditions: in vivo
Clostridioides difficile = assay: Antibacterial activity against Clostridium difficile; assay type: functional
Helicobacter pylori [19] = assay: Antibacterial activity against susceptible Helicobacter pylori; assay type: functional
Helicobacter pylori [20] = assay: Antibacterial activity against resistant Helicobacter pylori; assay type: functional
Helicobacter pylori [21] = assay: Antibacterial activity against Helicobacter pylori after 72 hrs by E-test; assay type: functional
Leishmania donovani [22] = assay: Antileishmanial activity against Leishmania donovani LV9 amastigotes infected in po dosed BALB/c mouse assessed as reduction in parasite burden dosed on day 7 post-infection administered bid for 5 to 10 days; assay type: functional

Which MIC (Bacteroides fragilis) does the source give for `CCS(=O)(=O)CCn1c([N+](=O)[O-])cnc1C` [TINIDAZOLE] here?
The MIC was 0.8 to 3.7 µM (≈ 0.198 to 0.915 µg/mL).

And the Efficacy (Giardia intestinalis [1])?
Its Efficacy is 92%.

What about the half-life [2] of the same molecule?
Its half-life is 12 to 14 h.

What about the MLC (Trichomonas vaginalis [3]) of the same molecule?
The MLC was 1015 µM (≈ 251 µg/mL).

What about the Activity (Helicobacter pylori [4]) of the same molecule?
The Activity was >90%.

With `C[C@]1(COc2ccc(OC(F)(F)F)cc2)Cn2cc([N+](=O)[O-])nc2O1` as the molecule, how does the ED90 (Leishmania donovani [5]) read?
The ED90 was 3.7 mg/kg.

What does the source list for `Cc1ncc([N+](=O)[O-])n1CC(C)O` (centres undefined) [SECNIDAZOLE]?
MIC (Bacteroides fragilis): 0.8 to 3.7 µM (≈ 0.148 to 0.685 µg/mL); Efficacy (Giardia intestinalis [1]): 80 - 100%; Efficacy (Giardia intestinalis [6]): 80 - 100%

With `Cn1c([N+](=O)[O-])cnc1COc1ccc(S(C)(=O)=O)cc1` [FEXINIDAZOLE SULFONE] as the molecule, how does the EC50 (Leishmania donovani [7]) read?
The EC50 was 5300 nM.

For `O=C(Cn1ccnc1[N+](=O)[O-])NCc1ccccc1` [BENZNIDAZOLE], which Activity (Trypanosoma cruzi [8]) is on record?
The Activity was 8%.

What about the Activity (Trypanosoma cruzi [9]) of the same molecule?
The Activity was 76%.

With `CCCCCCCCCCCCCCCCOP(=O)([O-])OCC[N+](C)(C)C` [MILTEFOSINE] as the molecule, how does the EC50 (Leishmania donovani [7]) read?
Its EC50 is 3300 nM.

Which EC50 (Leishmania donovani [10]) does the source give for `O=[N+]([O-])c1cn2c(n1)OC[C@H](OCc1ccc(OC(F)(F)F)cc1)C2` here?
Its EC50 is 930 nM.

And the EC50 (Leishmania donovani [11])?
The EC50 was 160 nM.

And the MIC [12]?
Its MIC is > 100 µM.

With `CSc1ccc(OCc2ncc([N+](=O)[O-])n2C)cc1` [FEXINIDAZOLE] as the molecule, how does the inhibition in vivo at 200 mg/kg (Leishmania donovani [13]) read?
The inhibition in vivo at 200 mg/kg was 98%.

Which MIC (Entamoeba histolytica) does the source give for `Cc1ncc([N+](=O)[O-])n1CCO` [METRONIDAZOLE] here?
Its MIC is 12.5 to 25 µM (≈ 2.14 to 4.28 µg/mL).

And the MLC (Trichomonas vaginalis [14])?
The MLC was 4.25 µg/mL (≈ 24.8 µM).

What about the MLC (Trichomonas vaginalis [3]) of the same molecule?
Its MLC is 2618 µM (≈ 448 µg/mL).

And the Efficacy (Giardia intestinalis [15])?
Its Efficacy is 88%.

And the Efficacy (Giardia intestinalis [16])?
Its Efficacy is 48%.

What about the Drug excretion [17] of the same molecule?
Its Drug excretion is 1.2 µg/g.

What about the Drug excretion [18] of the same molecule?
The Drug excretion was 9.3 µg/g.

And the MIC90 (Clostridioides difficile)?
Its MIC90 is 0.2 to 2 µg/mL (≈ 1.17 to 11.7 µM).

And the MIC (Helicobacter pylori [19])?
The MIC was 0.25 to 2 µg/mL (≈ 1.46 to 11.7 µM).

What about the MIC (Helicobacter pylori [20]) of the same molecule?
The MIC was > 8 µg/mL.

What about the MIC (Helicobacter pylori [21]) of the same molecule?
Its MIC is ≥ 256 µg/mL.

Which EC50 (Leishmania donovani [7]) does the source give for `C[C@]1(COc2ccc(N3CCC(Oc4ccc(OC(F)(F)F)cc4)CC3)cc2)Cn2cc([N+](=O)[O-])nc2O1` [DELAMANID] here?
Its EC50 is 87 nM.

What about the ED50 (Leishmania donovani [22]) of the same molecule?
Its ED50 is 7.3 mg/kg.

What about the ED90 (Leishmania donovani [22]) of the same molecule?
Its ED90 is 21.5 mg/kg.

Which MIC (Bacteroides fragilis) does the source give for `Cc1ncc([N+](=O)[O-])n1CCc1ccncc1` [PANIDAZOLE] here?
Its MIC is 0.8 to 3.7 µM (≈ 0.186 to 0.859 µg/mL).

Which results are given for `Cc1ncc([N+](=O)[O-])n1CC(O)CCl` (centres undefined) [ORNIDAZOLE]?
MIC (Bacteroides fragilis): 0.8 to 3.7 µM (≈ 0.176 to 0.813 µg/mL); Efficacy (Giardia intestinalis [1]): 92 - 100%
